What was measured:
[1] = test system: human brown adipocytes immortalized by transgenesis and expressing β3-adrenergic receptors; settings: Zilberfarb 1997; Jockers 1998; cited from earlier work
[2] = test system: hMADS-2 cells; assay: Stimulation of UCP1 expression by β-adrenergic agonists in hMADS-2 cells differentiated into brown adipocytes; type: cell-based, human; settings: stimulation for 6 h at 10-100 nM; cells with 100 nM rosiglitazone days 3 to 16
Method: A) adipocytic differentiation of hMADS-2 cells was carried out in the presence of 100 nM rosiglitazone on the days indicated and mRNA levels were determined on day 17 by quantitative RT-PCR. (B, C) differentiation was obtained in the presence of 100 nM rosiglitazone between days 3 and 16, in the absence or the presence during the 6 last hours of β-adrenergic agonists at the indicated concentrations. The results represent the mean±SD of 3 (A) and 2 (B) independent experiments carried out with various series of cells; they are expressed by taking as 100% the values obtained either during treatment between days 3 and 9 (A) or in the absence of β-adrenergic agonists (B, C).
(§1) RNA purification and analysis: RNA extraction, the use of reverse transcriptase and determination of mRNA levels by real-time quantitative RT-PCR have been described (Zaragosi, L. E et al., Stem Cells, 2006. 24(11): p. 2412-9; Elabd, C, et al., Biochem Biophys Res Commun, 2007. 361(2): p. 342-8; Bezy, O., et al., J Biol Chem, 2005. 280(12): p. 11432-8). Expression of the genes of interest was normalized compared with the one of the TBP gene and was quantified using the ΔCt comparative method. […]
Immunoblot analysis: Total cellular lysates are analyzed by immunoblot as previously described (Bezy, O., et al., J Biol Chem, 2005. 280(12): p. 11432-8). […]

[3] = test system: hMADS-2 cells differentiated into white adipocytes; assay: Induction of a brown phenotype in hMADS-2 cells previously differentiated into white adipocytes; type: cell-based, human; settings: for expression of the UCP1 protein: exposure between days 14 and 16 with specific PPAR ligands; for UCP1 gene expression: replacement of rosiglitazone, 10 μM, results not shown
Method: Initially hMADS-2 cells were differentiated into white adipocytes with 100 nM rosiglitazone present between days 3 and 9. Once eliminated, the ligand is added or not added on day 14 and during the following days at the indicated […] concentrations.
The results are expressed as stimulation factor by taking as 1 the values obtained on day 16 after exposure to 100 nM rosiglitazone between days 3 and 9; the values represent the mean±SD of 2 independent experiments carried out with various series of cells.
(§2) Expression of the genes of interest was normalized compared with the one of the TBP gene and was quantified using the ΔCt comparative method. The sequences of oligonucleotide primers, obtained using the Primer Express Software (Perkin Elmer Life Sciences), are described in Table 1 below.
The primary antibodies obtained from the rabbit, anti-human UCP1 and anti-TBP, are products from Santa Cruz Biotechnology (Santa Cruz, Calif., USA) and the secondary antibodies (conjugated with horseradish peroxidase) are products from Promega (Charbonnières, France). The “Enhanced Chemiluminescence” system (Millipore, Saint-Quentin-Yvelines, France) was used for detection.

[4] = test system: hMADS-2 cells; assay: Adipocytic differentiation of hMADS-2 cells (Oil Red O lipid staining, GPDH activity, PPARγ mRNA); type: cell-based, human
Description: as §2

[5] = test system: hMADS-2 cells; assay: Oxygen consumption and respiratory uncoupling of hMADS-2 cells (respirometer); type: cell-based, human
Method: On day 20, oxygen consumption (A), decoupling of oxidative phosphorylation (B) and stimulation of oxygen consumption by isoprenaline (C) were measured according to the protocol described in “Materials and Methods”. […] Determination of oxygen consumption: Oxygen consumption was measured using two-chamber injection respirometer equipped with a Peltier thermostat, Clark electrodes and integrated magnetic stirrers (Oroboros, Innsbruck, Austria). Measurements were made at 37° C. with constant stirring in a volume of 2 ml of DMEM/F12 medium (1:1, v/v) containing 10% fetal calf serum. Before each measurement, the medium present in the chambers was equilibrated with air for 30 min, and then the freshly-trypsinized cells were transferred to this medium. […] The respiratory chain was blocked with 1 μg/ml antimycin A. Oxygen consumption was calculated using the DataGraph software (Oroboros Software). Basal respiratory activity corresponds to oxygen consumption sensitive to antimycin A. Respiratory activity was stimulated in the presence of 1 μM isoprenaline added extemporaneously in the injection chamber, with measurements made as described above.

[6] = test system: hMADS-2 cells; assay: Expression of brown adipocyte markers and related genes in hMADS-2 cells (quantitative RT-PCR, immunoblot); type: cell-based, human; settings: brown phenotype; ratio 1 for the white phenotype (days 3 to 9)
Method: Differentiation of hMADS-2 cells was carried out as described in FIG. 1. On day 16, levels of UCP1 (A), UCP2 (C), CIDEA (D) and CPT1B (E) mRNA were determined by quantitative RT-PCR. The results represent the mean±SD of 3 independent experiments carried out with various series of cells; they are expressed by taking as 100% the value obtained in the presence of 500 nM rosiglitazone. Levels of the UCP1 protein (B) were determined by immunoblotting on 2 different series of cells using TBP as endogenous internal standard.
Adipocytic differentiation of hMADS-2 cells was carried out in the presence of either rosiglitazone at 100 nM (A) or at the indicated concentrations (B). Levels of PRDM16, PGC-1α, PGC-1β and PPARα mRNA were determined by quantitative RT-PCR on day 16 (A) and day 17 (B). […]
Adipocytic differentiation of hMADS-2 cells was carried out in the presence of 100 nM rosiglitazone. On day 16, Bcl-2 and Bax mRNA levels were determined by quantitative RT-PCR. […]
as §1, with “11432-8).” for “11432-8). Expression of the genes of interest was normalized compared with the one of the TBP gene and was quantified using the ΔCt comparative method.”

[7] = 100 nM, days 3 to 20 (brown) versus days 3 to 9 (white)

Molecule: CC(C)(C)NCC(O)COc1cccc2[nH]c(=O)[nH]c12 (stereo not shown) [CGP12177A]
- lipolytic activity [1]: only weak lipolytic activity

Molecule: C[C@H](Cc1ccc2c(c1)OC(C(=O)[O-])(C(=O)[O-])O2)NC[C@H](O)c1cccc(Cl)c1.[Na+].[Na+] [CL316243]
- expression of UCP1 mRNA and UCP1 protein [2]: significantly increased

Molecule: O=C(Nc1ccccc1)c1cc([N+](=O)[O-])ccc1Cl [GW 9662]
- expression of the UCP-1 gene ([3]; PPARγ antagonist added, cells differentiated beforehand into white adipocytes): does not allow expression of the UCP-1 gene
- differentiation of hMADS cells into adipocytes ([4]; PPARγ antagonist added to the differentiation medium): prevents

Molecule: CCCc1c(OCCCOc2ccc(OCC(=O)O)cc2)ccc(C(C)=O)c1O [L165041]
- expression of the UCP1 protein [3]: not inducing the expression of the UCP1 protein

Molecule: Cc1cccc(Nc2cc(Cl)nc(SCC(=O)O)n2)c1C [Wy14643]
- expression of the UCP1 protein [3]: not inducing the expression of the UCP1 protein

Molecule: CCCCC/C=C\C/C=C\C/C=C\C/C=C\CCCC(=O)O [arachidonic acid]
- UCP1 gene expression [3]: no effect

Molecule: CC/C=C\C/C=C\C/C=C\C/C=C\C/C=C\C/C=C\CCC(=O)O [docosahexaenoic acid]
- UCP1 gene expression [3]: no effect

Molecule: CC/C=C\C/C=C\C/C=C\C/C=C\C/C=C\CCCC(=O)O [eicosapentaenoic acid]
- UCP1 gene expression [3]: no effect

Molecule: CC(C)NCC(O)c1ccc(O)c(O)c1 (stereo not shown) [isoproterenol]
- expression of UCP1 mRNA and UCP1 protein [2]: significantly increased
- stimulation of oxygen consumption ([5]; 1 μM, cells with brown phenotype): important stimulation

Molecule: CN(CCOc1ccc(CC2SC(=O)NC2=O)cc1)c1ccccn1 (stereo not shown) [rosiglitazone]
- ratio of Bcl-2 to Bax [6]: 3.7
- increase factor of total respiratory activity [5, 7]: 3
- increase factor of uncoupled respiratory activity [5, 7]: 2.5

B1: BMP7: Bone Morphogentic Protein 7 (BMP7) (protein, UniProt P18075 293-431, looked up)
Bone morphogenetic protein 7: STGSKQRSQNRSKTPKNQEALRMANVAENSSSDQRQACKKHELYVSFRDLGWQDWIIAPEGYAAYYCEGECAFPLNSYMNATNHAIVQTLVHFINPETVPKPCCAPTQLNAISVLYFDDSSNVILKKYRNMVVRACGCH
- UCP-1 protein expression ([3]; cells differentiated beforehand into white adipocytes): weak increase
- differentiation of hMADS cells into adipocytes ([4]; BMP7 alone, in the absence of rosiglitazone): does not enable their differentiation into adipocytes
